Data reported in PMC3179866, “Antiproliferative Activity of Xanthones Isolated from Artocarpus obtusus” (Journal of Biomedicine and Biotechnology, 2011).
Values after ≈ are worked out from the molar mass of the structure shown. Like-named read-outs stand apart in the source and are kept apart here.

What was measured:
[1] = system: MCF7 (human estrogen receptor (ER+) positive breast cancer) cells; experiment: MTT cytotoxicity assay, MCF7; type: cell-based; conditions: 72 hours continuous exposure
Excerpt: (§1) The cancerous and noncancerous cell lines (suspension and anchorage-dependent cells) were obtained from the American Type Culture Collection (ATCC) and the RIKEN Cell Bank (RCB). The cancerous cell lines used were HL-60 (human acute promyelocytic leukemia) (RCB), K562 (human chronic myeloid leukemia) (ATCC), MCF7 (human estrogen receptor (ER+) positive breast cancer) (ATCC), HeLa (human cervical cancer) (ATCC), HepG2 (human hepatocarcinoma) (ATCC), HT29 (human colon cancer) (RCI), and MDA-MB 231 (human estrogen receptor (ER−) negative) (ATCC). The noncancerous cell line and normal cells were 3T3 (Mouse embryo fibroblast) (ATCC), MCF10A (human nontumorigenic breast cell line) (ATCC) and PBMC (human peripheral blood mononuclear cells). PBMCs were obtained from one of the authors herself. Blood (10–12 mL) was taken from the donor by using the 25 mL syringe. The blood sample was diluted with same volume of PBS. The diluted blood sample was carefully layered on Ficoll-Paque Plus (Amersham Biosciences, USA) the ratio of 2 : 1. The mixture was centrifuged at 1500× g for 40 minutes at 18–20°C. The undisturbed lymphocyte layer was carefully transferred into centrifuge tube. The lymphocyte was washed and spun down three times by adding 10 mL sterile PBS and to get the pellet and resuspended in RPMI 1640 (Sigma, USA) with 100 IU/mL of penicillin, 100 μg/mL of streptomycin (Flowlab, Australia), and 10% v/v Fetal Bovine Serum (FBS) (PAA, Austria). Cell counting was performed to determine the PBMC number in equal volume of trypan blue.
The colorimetric assay was performed on the isolated compounds using a modified microculture tetrazolium salt (MTT) assay (Sigma, USA). Varying concentrations of 0.46, 0.93, 1.87, 3.75, 7.5, 15, and 30 μg/mL of pyranocycloartobiloxanthone A (1), dihydroartoindonesianin C (2), and pyranocycloartobiloxanthone B (3) were prepared from the substock solutions by serial dilution in RPMI 1640 to give a volume of 100 μL in each microtitre plate well (96-flat bottom microwell plates). Each well was then added with 100 μL of cell lines in complete growth media (RPMI 1640) 5 × 10^5 cells/mL. […] After incubation, the fractions of surviving cells were determined relative to the untreated cell population using the colorimetric MTT assay. In this method, the viabilities of the cells were determined by measuring the amount of blue formazan crystals formed after 20 mL of freshly prepared MTT solution (5 mg in 1 mL PBS) was added to each well followed by four hours of incubation at 37°C. […] Finally, the absorbance (OD) of each well at 570 nm of wavelength was read using the microplate reader (ELISA reader, EL340 Biokinetic Reader, Bio-Tek Instrumentation). […] The percentage of cell viability was determined as follows: […]

[2] = system: PBMC (human peripheral blood mononuclear cells); experiment: MTT cytotoxicity assay, PBMC; type: cell-based; conditions: PBMC (normal), 72 hours continuous exposure
Excerpt: as §1, with “The lymphocyte was washed and spun down three times by adding 10 mL sterile PBS and to get the pellet and resuspended in RPMI 1640 (Sigma, USA) with 100 IU/mL of penicillin, 100 μg/mL of streptomycin (Flowlab, Australia), and 10% v/v Fetal Bovine Serum (FBS) (PAA, Austria). Cell counting was performed to determine the PBMC number in equal volume of trypan blue.” left out
(§2) The colorimetric assay was performed on the isolated compounds using a modified microculture tetrazolium salt (MTT) assay (Sigma, USA). […] After incubation, the fractions of surviving cells were determined relative to the untreated cell population using the colorimetric MTT assay. In this method, the viabilities of the cells were determined by measuring the amount of blue formazan crystals formed after 20 mL of freshly prepared MTT solution (5 mg in 1 mL PBS) was added to each well followed by four hours of incubation at 37°C. […] Finally, the absorbance (OD) of each well at 570 nm of wavelength was read using the microplate reader (ELISA reader, EL340 Biokinetic Reader, Bio-Tek Instrumentation). […] The percentage of cell viability was determined as follows: […]

[3] = system: HL60 (human promyelocytic leukemia) cells; experiment: MTT cytotoxicity assay, HL60; type: cell-based; conditions: HL-60, 72 h, 72 hours continuous exposure
Excerpt: as §1, with “The lymphocyte was washed and spun down three times by adding 10 mL sterile PBS and to get the pellet and resuspended in RPMI 1640 (Sigma, USA) with 100 IU/mL of penicillin, 100 μg/mL of streptomycin (Flowlab, Australia), and 10% v/v Fetal Bovine Serum (FBS) (PAA, Austria). Cell counting was performed to determine the PBMC number in equal volume of trypan blue.” left out
as §2

[4] = system: HL60 cells; experiment: Cell proliferation ELISA BrdU assay, HL60; type: cell-based, human; conditions: HL60, treated at IC50 concentration (2 μg/mL)
Method: (§3) This assay was conducted to determine the antiproliferative effects of the tested compound. In this assay, three different concentrations of compound or test sample were prepared together with control. The concentration chosen were 1 μg/mL, the IC50 concentration, and 20 μg/mL. Two types of cells were selected: HL-60 (suspension) and MCF7 (adherent) cells, since they gave the most significant results for the cytotoxic activity. The procedures are according to the instruction manual from Roche. Each sample was assayed in triplicate, and control samples include a blank (no cells) and background (without BrdU). The cells were treated by pyranocycloartobiloxanthone A (1) for 24, 48, and 72 hours. The cells were cultured together with various dilutions of test substance (tested compound) in 96-well MP flat bottom in a final volume of 100 μL/well, and 10 μL BrdU label (diluted by 1/2000 in media) was added to each well and incubated for 24 hour at 37°C. BrdU label was then replaced with 200 μL of fix/denaturing solution for 30 min at room temperature (25°C) and removed by inverting the plate. The anti-BrdU-POD working solution (100 μL/well) (diluted by 1/100 in dilution buffer) was added and incubated for one hour at room temperature. The cells were washed three times with wash buffer and once with dH2O. Then, removed dH2O and 100 μL of substrate solution was added to each well and incubated for 15 min at room temperature in the dark. The stop solution (100 μL/well) was added, and the absorbance was measured using ELISA reader at 450 nm, (reference wavelength 690). The activity was observed by the optical density (OD) of the absorbance at 450 nm, and graphs were plotted from the optical density obtained against time of exposure for each cell lines.

[5] = system: 3T3 (mouse embryo fibroblast) cells; experiment: MTT cytotoxicity assay, 3T3; type: cell-based; conditions: 3T3, MTT, 72 hours continuous exposure
Excerpt: (§4) The cancerous and noncancerous cell lines (suspension and anchorage-dependent cells) were obtained from the American Type Culture Collection (ATCC) and the RIKEN Cell Bank (RCB). The cancerous cell lines used were HL-60 (human acute promyelocytic leukemia) (RCB), K562 (human chronic myeloid leukemia) (ATCC), MCF7 (human estrogen receptor (ER+) positive breast cancer) (ATCC), HeLa (human cervical cancer) (ATCC), HepG2 (human hepatocarcinoma) (ATCC), HT29 (human colon cancer) (RCI), and MDA-MB 231 (human estrogen receptor (ER−) negative) (ATCC). […]
as §2

[6] = system: MCF7 cells; experiment: Acridine orange / propidium iodide staining, MCF7; type: cell-based, human; conditions: MCF7, 5 μg/mL (IC50), 72 hours
Method: (§5) Cell suspensions were mixed with an equal volume of staining solution (1 : 1) containing 10 μg/mL acridine orange and 10 μg/mL propium iodide (dissolved in PBS) and observed under fluorescence microscope within 30 minutes. The viable (green intact cells), apoptotic (green shrinking cells with condensed of fragmented nucleus), and necrotic (red cells) were the morphological changes that were examined under fluorescence microscope.

[7] = system: HepG2 (human hepatocarcinoma) cells; experiment: MTT cytotoxicity assay, HepG2; type: cell-based; conditions: 72 hours continuous exposure
Excerpt: as §4, §2

[8] = system: MCF7 cells; experiment: Cell proliferation ELISA BrdU assay, MCF7; type: cell-based, human; conditions: MCF7, treated at IC50 concentration (5 μg/mL)
Method: as §3

[9] = system: MDA-MB 231 (human estrogen receptor (ER-) negative) cells; experiment: MTT cytotoxicity assay, MDA-MB 231; type: cell-based; conditions: MDA-MB 231, MTT, 72 hours continuous exposure
Excerpt: as §4, §2

[10] = system: HeLa (human cervical cancer) cells; experiment: MTT cytotoxicity assay, HeLa; type: cell-based; conditions: 72 hours continuous exposure
Excerpt: as §4, §2

[11] = system: MCF10A (human nontumorigenic breast cell line); experiment: MTT cytotoxicity assay, MCF10A; type: cell-based; conditions: MCF10A (normal), 72 hours continuous exposure
Excerpt: as §4, §2

[12] = system: HL60 cells; experiment: Acridine orange / propidium iodide staining, HL60; type: cell-based, human; conditions: HL60, 2 μg/mL (IC50), 72 hours
Method: as §5

[13] = system: HT29 (human colon cancer) cells; experiment: MTT cytotoxicity assay, HT29; type: cell-based; conditions: HT-29, 72 hours continuous exposure
Excerpt: as §4, §2

[14] = system: K562 (human chronic myeloid leukemia) cells; experiment: MTT cytotoxicity assay, K562; type: cell-based; conditions: K562, 72 h, 72 hours continuous exposure
Excerpt: as §4, §2

COc1cccc2c1C(=O)c1c(O)c3c(c(O)c1C2=O)C[C@@](O)(C(=O)CO)C[C@@H]3O[C@H]1C[C@H](N)[C@H](O)[C@H](C)O1 [Doxorubicin, reference compound]
IC50 [1]: 0.2 ± 0.06 µg/mL (≈ 0.368 µM)
IC50 ([2]; Homo sapiens, read-out: IC50): > 30 µg/mL
IC50 [3]: 0.2 ± 0.03 µg/mL (≈ 0.368 µM)

CC1C(O)Oc2c(O)cc(O)c3c2C1Cc1c-3oc2c3c(cc(O)c2c1=O)OC(C)(C)C=C3 (stereo not drawn) [compound 1, pyranocycloartobiloxanthone A]
IC50 [1]: 5 ± 1.2 µg/mL (≈ 11.1 µM)
IC50 ([2]; Homo sapiens, read-out: IC50): > 30 µg/mL
IC50 [2]: not toxic
OD value (BrdU ELISA, 450 nm) ([4]; 24 hours, untreated 1.34): 0.8
OD value (BrdU ELISA, 450 nm) ([4]; 48 hours, untreated 1.26): 0.78
OD value (BrdU ELISA, 450 nm) ([4]; 72 hours, untreated 1.65): 0.66
IC50 [5]: 7 ± 1.6 µg/mL (≈ 15.5 µM)
mode of cell death (AO/PI morphology) [6]: kill both cells in apoptotic manner
IC50 [7]: 20 ± 2 µg/mL (≈ 44.4 µM)
OD value (BrdU ELISA, 450 nm) ([8]; 24 hours, untreated 1.44): 0.89
OD value (BrdU ELISA, 450 nm) ([8]; 48 hours, untreated 2.08): 0.75
OD value (BrdU ELISA, 450 nm) ([8]; 72 hours, untreated 2.88): 0.66
IC50 [9]: 12 ± 1.1 µg/mL (≈ 26.6 µM)
IC50 [10]: 8 ± 3.3 µg/mL (≈ 17.8 µM)
IC50 ([11]; Homo sapiens, MCF-10A, read-out: IC50): > 30 µg/mL
IC50 [11]: not toxic
mode of cell death (AO/PI morphology) [12]: kill both cells in apoptotic manner
IC50 [13]: 14 ± 1.5 µg/mL (≈ 31.1 µM)

C=C(C)c1cc2c(=O)c3c(O)cc4c(c3oc2c2c1C(C)(O)CC2=O)C=CC(C)(C)O4 (stereo not drawn) [compound 2, dihydroartoindonesianin C]
IC50 [1]: 27 ± 1.9 µg/mL (≈ 64.5 µM)
IC50 [3]: 26 ± 0.8 µg/mL (≈ 62.1 µM)
IC50 [14]: > 30 µg/mL

CC1Oc2c(O)cc(O)c3c2C(Cc2c-3oc3c4c(cc(O)c3c2=O)OC(C)(C)C=C4)C1O (stereo not drawn) [compound 3, pyranocycloartobiloxanthone B]
IC50 [1]: 23 ± 1.3 µg/mL (≈ 51.1 µM)
IC50 [3]: 17 ± 0.8 µg/mL (≈ 37.7 µM)
IC50 [14]: > 30 µg/mL
